Laboratory results: publication PMC8309042, “Antimelanogenesis Effects of Leaf Extract and Phytochemicals from Ceylon Olive (Elaeocarpus serratus) in Zebrafish Model” (Pharmaceutics, 2021)
Where two headings read alike, the source gives them in different places.

What was measured:
mushroom tyrosinase = test: Enzyme kinetic study (Lineweaver–Burk plot); assay type: biochemical; conditions: for Potential (trend of Vmax with concentration): 0-100 μg/mL; for Inhibition Type: L-tyrosine and L-DOPA substrates, Lineweaver–Burk
Protocol: Enzyme kinetic study is analyzed by the Lineweaver–Burk reciprocal plot of the reaction rate and the concentration of the substrate to evaluate the effect of the specimen on the affinity of the substrate and enzyme. […] The reaction was similar to antityrosinase assay as described above; 40 µL of specimen solution and 70 µL of potassium phosphate buffer (0.1 M, pH 6.8) were mixed, which was followed by adding 50 µL of 200 unit/mL tyrosinase, after incubation at 25 °C for 10 min.

zebrafish embryo = test: Antimelanogenesis effect in zebrafish embryos (melanin content by ImageJ); assay type: in vivo, zebrafish (Danio rerio); conditions: for IC50: Danio rerio, read-out: IC50 of melanogenesis inhibition activity in zebrafish; for effect on melanogenesis of zebrafish: concentration 50 μM
Protocol: Zebrafish (Danio rerio) of wild-type AB strain were maintained in a healthy aquatic environment at 26–30 °C, with a 14:10 h light–dark cycle. After 9 h post fertilization (hpf), embryos were placed into a 24-well plate (3 embryos per well), treated with various final concentrations of specimens dissolved in 1% DMSO, and incubated at 28 °C for 48 h (at 57 hpf). The digital image of live zebrafish embryo was taken through a stereomicroscope (Olympus SZ61, Tokyo, Japan) at a total magnification of 40×; then, the melanin content of zebrafish embryo was analyzed by the ImageJ software. […] The number of replications was six.

[1] = embryos treated 9 hpf to 57 hpf (48 h)

Structure (SMILES) | Potential (trend of Vmax with concentration) (mushroom tyrosinase; L-DOPA substrate) | Potential (trend of Vmax with concentration) (mushroom tyrosinase; L-Tyrosine substrate) | Inhibition Type (mushroom tyrosinase) | Inhibition Type (mushroom tyrosinase; listed as gallic acid) | IC50 (zebrafish embryo; embryos treated 9 hpf to 57 hpf (48 h), dash defined in footnote) [µM] | Inhibition Type (mushroom tyrosinase; listed as mearnsetin) | IC50 (zebrafish embryo; [1]) [µM] | effect on melanogenesis of zebrafish (zebrafish embryo) | IC50 (zebrafish embryo; 48 h) [µM]
O=C(O)c1cc(O)c(O)c(O)c1 [Gallic acid] | ― | ― | Competitive | competitive inhibitor | > 400 |  |  |  | 
COc1c(O)cc(-c2oc3cc(O)cc(O)c3c(=O)c2O)cc1O [Mearnsetin, 4′-O-methyl myricetin] | ― | ― | Competitive |  |  | competitive inhibitor | 121 ± 0.96 | better melanogenesis inhibition activity | 
O=c1c(O)c(-c2cc(O)c(O)c(O)c2)oc2cc(O)cc(O)c12 [Myricetin] | ↓ | ↓ | mixed-type inhibitor |  |  |  | 350 ± 42.7 | slight melanin inhibition effect | 
NC(=S)Nc1ccccc1 [PTU, 1-phenyl-2-thiourea, reference compound] |  |  |  |  |  |  |  | could reduce the melanin formation | 26.3 ± 4.17
OC[C@H]1O[C@@H](Oc2ccc(O)cc2)[C@H](O)[C@@H](O)[C@@H]1O [Arbutin, arbutin, reference compound] |  |  |  |  |  |  | 324 ± 19.8 | could reduce the melanin formation | 
